The assay has as its system beige adipocytes. The assay is described as follows: Lipolysis validation assays of primary hits at three concentrations. Type of assay: cell-based, human. Further details: % of Control (1) / % of Control (2) / % of Control (3) / % of Control (4): unit of the concentration uncertain. As to conditions: for activity at 2.2 µM / activity at 6.7 µM / activity at 20 µM / activity at 2200 µM: Homo sapiens, Adipocyte, 24 h; for activity at 2.2 µM: Conc. 2.2 µM; for activity at 6.7 µM: Conc. 6.7 µM; for activity at 20 µM: Conc. 20 µM; for activity at 2200 µM: Conc. 2.2 mM. The procedure: ADSCs were seeded at 5000 cell/cm^2 in 12-well plates, grown for 5 days and then induced to differentiate into GC for 20 days. Prior to the assay, cells were washed in DPBS twice and then incubated with DMEM with 2% fatty-acid free BSA (Santa Crus, sc-500949) and Triascin C (5 μM). Cells were treated with forskolin (20 μM) for indicated time periods and supernatant samples were collected. Lipolysis assay was performed with free glycerol reagent (Sigma, F6428-40ML), according to manufacturer instructions.
Lipolysis assays were performed after 24 hours of drug treatment by measuring free glycerol released in the 384-well format, using the procedure described above. Absorbance for each compound was normalized to untreated control samples for each plate and calculated as a percent of the control. Cut-offs for “activating” and “inhibiting” compounds were set at 2-fold. Validation assays were performed for select compounds at a range of concentration doses.
Next, lipolysis assays were performed for all 111 compounds identified in the primary screen at three different concentrations, of which twenty-four were selected for further analysis based on their newness and/or reproducibility.

Counter-ions that a name gives are not always drawn. Like-named read-outs stand apart in the source and are kept apart here.

Consider `O=C(Nc1c[nH]nc1-c1nc2ccc(CN3CCOCC3)cc2[nH]1)NC1CC1` [AT9283], for which, under “read-out: % of Control (2)”, the activity at 2.2 µM turned out to be 115%, the activity at 6.7 µM is 152% and the activity at 20 µM was 144%. In addition, under “read-out: % of Control (4)”, the activity at 2.2 µM came to 133%, the activity at 6.7 µM was found to be 177% and the activity at 20 µM stood at 159%. Moreover, under “read-out: % of Control (1)”, the activity at 6.7 µM is 151%, the activity at 20 µM amounted to 132% and the activity at 2200 µM turned out to be 163%. Further, for the setting “read-out: % of Control (3)”, the activity at 6.7 µM was 161%, the activity at 20 µM was found to be 202% and the activity at 2200 µM worked out at 142%.

`CC(=O)Nc1ccccc1` [Acetanilide]: where the note is “read-out: % of Control (2)”, the activity at 2.2 µM stood at 377%, the activity at 6.7 µM turned out to be 332% and the activity at 20 µM was 295%. In addition, where the note is “read-out: % of Control (4)”, the activity at 2.2 µM is 119%, the activity at 6.7 µM was determined as 249% and the activity at 20 µM is 258%. For the setting “read-out: % of Control (1)”, the activity at 6.7 µM amounted to 252%, the activity at 20 µM is 298% and the activity at 2200 µM was found to be 317%. Moreover, for the setting “read-out: % of Control (3)”, the activity at 6.7 µM is 246%, the activity at 20 µM worked out at 253% and the activity at 2200 µM was found to be 251%.

With `CCc1cnn2c(NCc3ccc[n+]([O-])c3)cc(N3CCCC[C@H]3CCO)nc12` [Dinaciclib], the activity at 2.2 µM reads like this: (read-out: % of Control (2)) 232%; (read-out: % of Control (4)) 179%. Moreover, the activity at 6.7 µM is 180% (read-out: % of Control (1)), 204% (read-out: % of Control (2)), 149% (read-out: % of Control (3)) and 129% (read-out: % of Control (4)). The activity at 20 µM by setting is: (read-out: % of Control (1)) 291%; (read-out: % of Control (2)) 246%; (read-out: % of Control (3)) 60.7%; (read-out: % of Control (4)) 262%. In addition, the activity at 2200 µM came out at 175% (read-out: % of Control (1)) and 193% (read-out: % of Control (3)).

For the molecule `CCOC(=O)C1=C(C)NC(C)=C(C(=O)OC)C1c1cccc(Cl)c1Cl` (stereo not drawn) [Felodipine], under “read-out: % of Control (2)”, the activity at 2.2 µM came to 220%, the activity at 6.7 µM is 241% and the activity at 20 µM turned out to be 274%. Further, for the setting “read-out: % of Control (4)”, the activity at 2.2 µM was 206%, the activity at 6.7 µM is 256% and the activity at 20 µM was determined as 245%. For the same molecule, where the note is “read-out: % of Control (1)”, the activity at 6.7 µM was found to be 284%, the activity at 20 µM is 291% and the activity at 2200 µM was 243%. For the same molecule, where the note is “read-out: % of Control (3)”, the activity at 6.7 µM is 228%, the activity at 20 µM turned out to be 244% and the activity at 2200 µM is 203%.

As to `CCC(NC(C)C)C(O)c1ccc(O)c(O)c1` (stereo not drawn) [Isoetharine Mesylate], under “read-out: % of Control (2)”, the activity at 2.2 µM is 307%, the activity at 6.7 µM worked out at 301% and the activity at 20 µM worked out at 304%. Besides, where the note is “read-out: % of Control (4)”, the activity at 2.2 µM is 106%, the activity at 6.7 µM worked out at 247% and the activity at 20 µM came to 260%. For the setting “read-out: % of Control (1)”, the activity at 6.7 µM was 373%, the activity at 20 µM was 417% and the activity at 2200 µM stood at 294%. Moreover, for the setting “read-out: % of Control (3)”, the activity at 6.7 µM amounted to 339%, the activity at 20 µM turned out to be 204% and the activity at 2200 µM amounted to 258%.

`C[C@@H]1CC(=O)NN=C1c1ccc(NN=C(C#N)C#N)cc1` [Levosimendan]: under “read-out: % of Control (2)”, the activity at 2.2 µM was 163%, the activity at 6.7 µM came to 189% and the activity at 20 µM came out at 280%. Moreover, for the setting “read-out: % of Control (4)”, the activity at 2.2 µM was determined as 236%, the activity at 6.7 µM came out at 246% and the activity at 20 µM turned out to be 340%. Where the note is “read-out: % of Control (1)”, the activity at 6.7 µM was 197%, the activity at 20 µM is 261% and the activity at 2200 µM stood at 215%. Besides, for the setting “read-out: % of Control (3)”, the activity at 6.7 µM is 211%, the activity at 20 µM was 247% and the activity at 2200 µM worked out at 189%.

In the case of `CC(Oc1c(Cl)cccc1Cl)C1=NCCN1` (stereo not drawn) [Lofexidine HCl], where the note is “read-out: % of Control (2)”, the activity at 2.2 µM stood at 115%, the activity at 6.7 µM is 176% and the activity at 20 µM was found to be 200%. Also, where the note is “read-out: % of Control (4)”, the activity at 2.2 µM was 91.4%, the activity at 6.7 µM stood at 149% and the activity at 20 µM amounted to 191%. For the same molecule, under “read-out: % of Control (1)”, the activity at 6.7 µM turned out to be 122%, the activity at 20 µM came out at 205% and the activity at 2200 µM is 104%. For the setting “read-out: % of Control (3)”, the activity at 6.7 µM was 180%, the activity at 20 µM came to 148% and the activity at 2200 µM amounted to 119%.

For the molecule `CC(C)C[C@H](NC(=O)CNC(=O)c1cc(Cl)ccc1Cl)B1OC(=O)C(CC(=O)O)(CC(=O)O)O1` [MLN9708], the activity at 2.2 µM turned out to be 139% (read-out: % of Control (2)) and 114% (read-out: % of Control (4)). The activity at 6.7 µM is, setting by setting: (read-out: % of Control (1)) 198%; (read-out: % of Control (2)) 228%; (read-out: % of Control (3)) 176%; (read-out: % of Control (4)) 115%. Also, the activity at 20 µM is 138% (read-out: % of Control (1)), 173% (read-out: % of Control (2)), 117% (read-out: % of Control (3)) and 90% (read-out: % of Control (4)). Moreover, the activity at 2200 µM is, setting by setting: (read-out: % of Control (1)) 251%; (read-out: % of Control (3)) 205%.

As for `CC(C)NCC(O)c1cc(O)cc(O)c1` (stereo not drawn) [Metaproterenol Sulfate], the activity at 2.2 µM (read-out: % of Control (2)) turned out to be 298% and the activity at 2.2 µM (read-out: % of Control (4)) was 305%. Moreover, the activity at 6.7 µM (read-out: % of Control (1)) was 311%, the activity at 6.7 µM (read-out: % of Control (2)) was 412%, the activity at 6.7 µM (read-out: % of Control (3)) is 293% and the activity at 6.7 µM (read-out: % of Control (4)) came to 283%. The activity at 20 µM is 305% (read-out: % of Control (1)), 293% (read-out: % of Control (2)), 308% (read-out: % of Control (3)) and 274% (read-out: % of Control (4)). Moreover, the activity at 2200 µM is, setting by setting: (read-out: % of Control (1)) 327%; (read-out: % of Control (3)) 291%.

Regarding `Cc1[nH]c(=O)c(C#N)cc1-c1ccncc1` [Milrinone], for the setting “read-out: % of Control (2)”, the activity at 2.2 µM is 117%, the activity at 6.7 µM worked out at 154% and the activity at 20 µM was 205%. For the same molecule, under “read-out: % of Control (4)”, the activity at 2.2 µM stood at 170%, the activity at 6.7 µM was found to be 142% and the activity at 20 µM was 185%. Where the note is “read-out: % of Control (1)”, the activity at 6.7 µM is 236%, the activity at 20 µM amounted to 168% and the activity at 2200 µM came to 99%. Further, under “read-out: % of Control (3)”, the activity at 6.7 µM was 116%, the activity at 20 µM is 171% and the activity at 2200 µM turned out to be 126%.

Take `CO[C@H]1CC[C@@H](O[C@H]2C[C@H]([C@]3(C)CC[C@]4(C[C@H](O)[C@@H](C)[C@@H]([C@@H](C)/C=C(\C)C(=O)[C@H](C)C[C@H](C)C(=O)O)O4)O3)O[C@]3(O[C@@H]([C@H]4O[C@@](O)(CO)[C@H](C)C[C@@H]4C)C[C@@H]3C)[C@@H]2C)O[C@@H]1C` [Nanchangmycin]: under “Conc. 2.2 (unit uncertain)”, the “% of Control (1)” value is 259.29 % of Control, the “% of Control (2)” value was 209.65 % of Control, the “% of Control (3)” value is 192.42 % of Control and the “% of Control (4)” value was 124.48 % of Control. For the same molecule, where the note is “Conc. 6.7 (unit uncertain)”, the “% of Control (1)” value is 196.07 % of Control, the “% of Control (2)” value was 104.94 % of Control, the “% of Control (3)” value is given as 147.69 % of Control and the “% of Control (4)” value is given as 106.09 % of Control. For the setting “Conc. 20 (unit uncertain)”, the “% of Control (1)” value is on record as 147.14 % of Control, the “% of Control (2)” value was 168.94 % of Control, the “% of Control (3)” value was 98.9 % of Control and the “% of Control (4)” value is 168.85 % of Control.

Source of the values: patent US20220079993A1, “NON-NATURALLY OCCURRING THERMOGENIC ADIPOCYTES, METHODS OF MAKING, AND METHODS OF USE THEREOF” (University of Georgia Research Foundation, Inc., priority 2019, published 2022).
